Drawing on patent US12240846B2 (Enliven Inc., priority 2020, dated 2025), this text covers IC50 for 26 molecules.

One experiment relates to K562 cells. In words: K562 cell proliferation assay (CellTiter-Glo). The class given is cell-based. To be noted: Homo sapiens, K562 cell viability, 72 hours, read-out: Cell Line (IC50, nM) K562. The procedure:
(§1) K562 and HL60 Cell Proliferation Assay
(§2) K562 and HL60 cells, cultured in Iscove's Modified Dulbecco's Media (IMDM) supplemented with 10% FBS, were harvested at 50-80% confluency and plated at 2,000 cells per well (K562) or 1,500 cells per well (HL60) in 384-well tissue culture plates. A subset of wells contained media only (low control, LC). […] The plates were placed in a 37° C. incubator with 5% CO2 for 72 hours. Cell viability was measured using a CellTiter-Glo luminescent cell viability assay (Promega), which allows for relative quantification of metabolically active cells by luminescence-based measurements of intracellular ATP concentrations. Briefly, plates were removed from the incubator and equilibrated for 15 minutes at room temperature prior to the addition of 40 μL of CellTiter-Glo reagent. Plates were then incubated for 30 minutes at room temperature. Luminescence was measured using an EnSpire plate reader (Perkin Elmer). As noted above, luminescence values from wells with DMSO only or media without cells were used as high and low controls (HC and LC), respectively. Normalized percent viability was calculated as follows: percent viability=100×(Lumsample−LumLC)/(LumHC−LumLC).
(In ATP-based viability assays light output follows the ATP content of the culture.)

Another experiment has as its target T1, ABL1 (Homo sapiens, UniProt P00519).
T1 construct: purchased Carna Biosciences
In words: Luminescence-based ABL kinase assay (300 μM ATP), ADP-Glo. The class given is biochemical. The source says:
Compounds were serially diluted in DMSO. […] Luminescence signal positively correlates with kinase activity.
(In ADP-Glo the light output rises with the ADP produced.)

The next experiment concerns the target ABL1 (T315I) (Homo sapiens, UniProt P00519, T315I). The description is as above. The class given is biochemical.
The subject of the next experiment is HL60 cells. In words: HL60 cell proliferation assay (CellTiter-Glo). The conditions noted are these: Homo sapiens, HL-60, HL60 cell viability, 72 hours, read-out: Cell Line (IC50, nM) HL60. The class given is cell-based. The procedure: as §1, §2

SMILES strings stand for the structures. Bounds are passed on as bounds.

In general, IC50 refers to the concentration needed to halve the response being measured. As to `COc1ccnc(OC)c1-c1cc2cc(NC(=O)[C@H]3C[C@@H]3CN3C4CCC3CNC4)ncc2n1C` (relative stereo) [Compound 147, Trans-2-((3,8-diazabicyclo[3.2.1]octan-8-yl)methyl)-N-(2-(2,4-dimethoxypyridin-3-yl)-1-methyl-1H-pyrrolo[2,3-c]pyridin-5-yl)cyclopropane-1-carboxamide], the figures for the IC50 in the experiment on K562 cells, at ABL1 and against ABL1 (T315I) were 152 nM, 24.4 nM and 41.8 nM, respectively.
Consider `COc1ccccc1-c1cc2cc(NC(=O)[C@@H]3C[C@H]3CN(C)C)ncc2n1C` (single isomer, unassigned) [Compound 132], for which the IC50 is 165 nM in the experiment on K562 cells, 59.4 nM at ABL1 and 75.1 nM against ABL1 (T315I).
Regarding `COc1ccccc1-c1cc2cc(NC(=O)[C@H]3C[C@@H]3CN(C)C)ncc2n1C` (single isomer, unassigned) [Compound 133], the results for the IC50 in the experiment with K562 cells, against ABL1 and at ABL1 (T315I) were 181 nM, 73.5 nM and 85.9 nM, respectively.
`CCOc1ccccc1-c1cc2cc(NC(=O)C3CC3)ncc2n1C` [Compound 3, N-[2-(2-ethoxyphenyl)-1-methylpyrrolo[2,3-c]pyridin-5-yl]cyclopropanecarboxamide]: the IC50 with HL60 cells worked out at 209 nM; with K562 cells it was 127 nM.
The corresponding values for `Cc1cc(O)ccc1-c1cc2cc(NC(=O)C3CC3)ncc2n1C` [Compound 8, N-[2-(4-hydroxy-2-methylphenyl)-1-methylpyrrolo[2,3-c]pyridin-5-yl]cyclopropanecarboxamide] are 59.1 nM and 95.6 nM.
On to `Cc1ccc(F)cc1-c1cc2cc(NC(=O)C3CC3)ncc2n1C` [Compound 12, N-[2-(5-fluoro-2-methylphenyl)-1-methylpyrrolo[2,3-c]pyridin-5-yl]cyclopropanecarboxamide], for which the IC50 was 4220 nM in the experiment on HL60 cells and 317 nM in the experiment with K562 cells.
The matching figures for `COc1ncccc1-c1cc2cc(NC(=O)C3CC3)ncc2n1C` [Compound 22, N-[2-(2-methoxypyridin-3-yl)-1-methylpyrrolo[2,3-c]pyridin-5-yl]cyclopropanecarboxamide]: 958 nM and 179 nM.
As to `COc1cc2ncsc2cc1-c1cc2cc(NC(=O)[C@@H]3C[C@@H]3F)ncc2n1C` [Compound 69, (1S,2S)-2-fluoro-N-[2-(5-methoxy-1,3-benzothiazol-6-yl)-1-methylpyrrolo[2,3-c]pyridin-5-yl]cyclopropane-1-carboxamide], the IC50 came to 20.4 nM against ABL1 and 62.9 nM on ABL1 (T315I).
`COc1cc2nccn2cc1-c1cc2cc(NC(=O)[C@@H]3C[C@@H]3F)ncc2n1C` [Compound 71, (1S,2S)-2-fluoro-N-(2-(7-methoxyimidazo[1,2-a]pyridin-6-yl)-1-methyl-1H-pyrrolo[2,3-c]pyridin-5-yl)cyclopropane-1-carboxamide]: the IC50 against ABL1 was found to be 105 nM; on ABL1 (T315I), 716 nM.
Regarding `CCNC(=O)Nc1cc2cc(-c3ccccc3OC)n(C)c2cn1` [Compound 77, 3-ethyl-1-[2-(2-methoxyphenyl)-1-methylpyrrolo[2,3-c]pyridin-5-yl]urea], the figures for the IC50 against ABL1 and at ABL1 (T315I) were 95.9 nM and 148 nM, respectively.
With `CCNC(=O)Nc1cc2cc(-c3cccnc3OC)n(C)c2cn1` [Compound 78, 3-ethyl-1-[2-(2-methoxypyridin-3-yl)-1-methylpyrrolo[2,3-c]pyridin-5-yl]urea], the IC50 against ABL1 worked out at 183 nM; against ABL1 (T315I) it was 411 nM.
The corresponding values for `CCN1CCN(CCNC(=O)Nc2cc3cc(-c4c(OC)ncc(F)c4OC)n(C)c3cn2)CC1` [Compound 84, 1-[2-(4-ethylpiperazin-1-yl)ethyl]-3-[2-(5-fluoro-2,4-dimethoxypyridin-3-yl)-1-methylpyrrolo[2,3-c]pyridin-5-yl]urea] are 44.5 nM and 164 nM.
The corresponding values for `COc1ncnc(OC)c1-c1[nH]c2cc(NC(=O)[C@@H]3C[C@@H]3F)ncc2c1C` [Compound 91, (1S,2S)-N-(2-(4,6-dimethoxypyrimidin-5-yl)-3-methyl-1H-pyrrolo[3,2-c]pyridin-6-yl)-2-fluorocyclopropane-1-carboxamide] are 388 nM and 399 nM.
As to `COc1nc(C(F)F)nc(OC)c1-c1cc2cc(NC(=O)[C@@H]3C[C@@H]3F)ncc2n1C` [Compound 96, (1S,2S)-N-(2-(2-(difluoromethyl)-4,6-dimethoxypyrimidin-5-yl)-1-methyl-1H-pyrrolo[2,3-c]pyridin-5-yl)-2-fluorocyclopropane-1-carboxamide], the IC50 against ABL1 stood at 40.4 nM; on ABL1 (T315I) it was 207 nM.
With `COc1nc(C2CC2)nc(OC)c1-c1cc2cc(NC(=O)[C@@H]3C[C@@H]3F)ncc2n1C` [Compound 100, (1S,2S)-N-(2-(2-cyclopropyl-4,6-dimethoxypyrimidin-5-yl)-1-methyl-1H-pyrrolo[2,3-c]pyridin-5-yl)-2-fluorocyclopropane-1-carboxamide], the results for the IC50 in the experiment on K562 cells, against ABL1 and at ABL1 (T315I) were 66.2 nM, 49.2 nM and 233 nM, respectively.
The corresponding values for `COc1nc(C)c(F)c(OC)c1-c1cc2cc(NC(=O)[C@@H]3C[C@@H]3F)ncc2n1C` [Compound 101, (1S,2S)-2-fluoro-N-[2-(5-fluoro-2,4-dimethoxy-6-methylpyridin-3-yl)-1-methylpyrrolo[2,3-c]pyridin-5-yl]cyclopropane-1-carboxamide] are 456 nM, 153 nM and 2330 nM.
As to `COc1nc(OC)c(-c2cc3cc(NC(=O)[C@@H]4C[C@@H]4F)ncc3n2C)c(OC)n1` [Compound 102, (1S,2S)-2-fluoro-N-(1-methyl-2-(2,4,6-trimethoxypyrimidin-5-yl)-1H-pyrrolo[2,3-c]pyridin-5-yl)cyclopropane-1-carboxamide], the IC50 against ABL1 worked out at 123 nM; at ABL1 (T315I), 412 nM.
With `COc1nc(N(C)C)nc(OC)c1-c1cc2cc(NC(=O)[C@@H]3C[C@@H]3F)ncc2n1C` [Compound 104, (1S,2S)-N-(2-(2-(dimethylamino)-4,6-dimethoxypyrimidin-5-yl)-1-methyl-1H-pyrrolo[2,3-c]pyridin-5-yl)-2-fluorocyclopropane-1-carboxamide], the IC50 in the experiment with HL60 cells was determined as 240 nM.
On to `CNc1ncnc(OC)c1-c1cc2cc(NC(=O)[C@@H]3C[C@@H]3F)ncc2n1C` [Compound 109, (1S,2S)-2-fluoro-N-(2-(4-methoxy-6-(methylamino)pyrimidin-5-yl)-1-methyl-1H-pyrrolo[2,3-c]pyridin-5-yl)cyclopropane-1-carboxamide], for which the IC50 against ABL1 is 60.2 nM; against ABL1 (T315I) it was 203 nM.
As for `COc1ncnc(NC2CC2)c1-c1cc2cc(NC(=O)[C@@H]3C[C@@H]3F)ncc2n1C` [Compound 110, (1S,2S)-N-(2-(4-(cyclopropylamino)-6-methoxypyrimidin-5-yl)-1-methyl-1H-pyrrolo[2,3-c]pyridin-5-yl)-2-fluorocyclopropane-1-carboxamide], the IC50 on ABL1 was determined as 280 nM; on ABL1 (T315I), 357 nM.
For `[2H]C([2H])([2H])Oc1ncnc(OC([2H])([2H])[2H])c1-c1cc2cc(NC(=O)[C@@H]3C[C@@H]3F)ncc2n1C([2H])([2H])[2H]` [Compound 111, (1S,2S)-N-(2-(4,6-bis(methoxy-d3)pyrimidin-5-yl)-1-(methyl-d3)-1H-pyrrolo[2,3-c]pyridin-5-yl)-2-fluorocyclopropane-1-carboxamide], the IC50 in the experiment with K562 cells came out at 23 nM.
Consider `COc1cccc(OC)c1-c1cc2cc(NC(=O)[C@@H]3C[C@H]3CN(C)C)ncc2n1C` [Compound 134, (1R,2R)-N-(2-(2,6-dimethoxyphenyl)-1-methyl-1H-pyrrolo[2,3-c]pyridin-5-yl)-2-((dimethylamino)methyl)cyclopropane-1-carboxamide], for which the IC50 in the experiment with K562 cells amounted to 53.1 nM.
In the case of `COc1cccc(OC)c1-c1cc2cc(NC(=O)[C@H]3C[C@@H]3CN(C)C)ncc2n1C` [Compound 135, (J S,2S)-N-(2-(2,6-dimethoxyphenyl)-1-methyl-1H-pyrrolo[2,3-c]pyridin-5-yl)-2-((dimethylamino)methyl)cyclopropane-1-carboxamide], the IC50 in the experiment with K562 cells amounted to 27.9 nM.
`COc1ncnc(OC)c1-c1cc2cc(NC(=O)[C@@H]3CC3(F)F)ncc2n1C` [Compound 136, (1S)-N-[2-(4,6-dimethoxypyrimidin-5-yl)-1-methylpyrrolo[2,3-c]pyridin-5-yl]-2,2-difluorocyclopropane-1-carboxamide]: the values for the IC50 in the experiment with HL60 cells and with K562 cells were 1200 nM and 98.8 nM, respectively.
The matching figures for `COc1ncnc(OC)c1-c1cc2cc(NC(=O)[C@H]3CC3(F)F)ncc2n1C` [Compound 137, (1R)-N-[2-(4,6-dimethoxypyrimidin-5-yl)-1-methylpyrrolo[2,3-c]pyridin-5-yl]-2,2-difluorocyclopropane-1-carboxamide]: 148 nM and 37 nM.
Take `[2H]C([2H])([2H])Oc1ncnc(OC([2H])([2H])[2H])c1-c1cc2cc(NC(=O)[C@@H]3C[C@@H]3F)ncc2[nH]1` [Compound 144, (1S,2S)-N-(2-(4,6-bis(methoxy-d3)pyrimidin-5-yl)-1H-pyrrolo[2,3-c]pyridin-5-yl)-2-fluorocyclopropane-1-carboxamide]: the figures for the IC50 in the experiment with HL60 cells and in the experiment with K562 cells were more than 10000 nM and 1070 nM, respectively.
